pIC50: −log10 of the molar value. Counter-ions that a name gives are not always drawn. Like-named read-outs stand apart in the source and are kept apart here. Marks after values point to notes of the source that are not given here.
Experiments:
[1] = molecular target: humanized recombinant DPP-IV (Homo sapiens (Human), UniProt P27487); assay: DPP-IV activity inhibition test in vitro (DPPIV-Glo luminescence); type: biochemical; conditions: DPP-IV, Table 1; read-out: IC50
Procedure: (1) DPP-IV Activity Inhibition Tests In Vitro
DPP-IV could hydrolyze Gly-Pro-Aminoluciferin at room temperature to generate Aminoluciferin, which could produce “glow type” luminescent signals in a luciferase reaction system provided by a DPPIV-Glo™ protease test kit, and the strength of the luminescent signals was in direct proportion to the enzyme activity of DPP-IV.
2.1 humanized recombinant DPP-IV: SIGMA product, article number D3446-10UG.
2.2 DPPIV-Glo™ protease detection kit: Promega product, article number G8351.
3.2 Diluting dipeptidyl peptidase IV (Sigma) to 0.2 ng/ml solution with 10 mM Tris-HCl (pH 8.0), adding the samples to be detected in, per well 25 μl. […] Experimental Results

[2] = CD-1 mouse, 5 mg/kg, oral administration; cited from earlier work
[3] = tested on: diabetic mice (B6.BKS(D)-Leprdb/JNju); assay: Glucose tolerance test of diabetic mice (Table 5); type: in vivo, mouse; parameters: AUC0-120 min: unit not given beside the values
Procedure: (§1) 2. Experimental method: normal mice, obese mice and diabetic mice were used for studying glucose tolerance tests Experimental process of OGTT (Oral Glucose Tolerance Test): fasting for 6 hours before the test begins, 60 min after drug administration, glucose was administrated by gavage (drug concentration 0.6 mg/ml, administration volume 5 ml/kg) (2 g/kg glucose was administrated to diabetic mice; 2 g/kg glucose was administrated to obese mice; and 5 g/kg glucose was administrated to normal mice), blood glucose values at 0 min, 15 min, 30 min, 45 min, 60 min and 120 min are respectively determined after glucose administration, […]

[4] = tested on: obese mice (B6.Cg-Lepob/JNju); assay: Glucose tolerance test of obese mice; type: in vivo, mouse; parameters: AUC0-120 min: unit not given beside the values
Procedure: as §1

[5] = man, 5 mg/subject; cited from earlier work
normal mice (C57BL/6J) = assay: Oral glucose tolerance test of normal mice; type: in vivo, mouse; parameters: AUC0-120 min: unit not given beside the values
Procedure: as §1

Sequence of humanized recombinant DPP-IV (P27487 whole entry): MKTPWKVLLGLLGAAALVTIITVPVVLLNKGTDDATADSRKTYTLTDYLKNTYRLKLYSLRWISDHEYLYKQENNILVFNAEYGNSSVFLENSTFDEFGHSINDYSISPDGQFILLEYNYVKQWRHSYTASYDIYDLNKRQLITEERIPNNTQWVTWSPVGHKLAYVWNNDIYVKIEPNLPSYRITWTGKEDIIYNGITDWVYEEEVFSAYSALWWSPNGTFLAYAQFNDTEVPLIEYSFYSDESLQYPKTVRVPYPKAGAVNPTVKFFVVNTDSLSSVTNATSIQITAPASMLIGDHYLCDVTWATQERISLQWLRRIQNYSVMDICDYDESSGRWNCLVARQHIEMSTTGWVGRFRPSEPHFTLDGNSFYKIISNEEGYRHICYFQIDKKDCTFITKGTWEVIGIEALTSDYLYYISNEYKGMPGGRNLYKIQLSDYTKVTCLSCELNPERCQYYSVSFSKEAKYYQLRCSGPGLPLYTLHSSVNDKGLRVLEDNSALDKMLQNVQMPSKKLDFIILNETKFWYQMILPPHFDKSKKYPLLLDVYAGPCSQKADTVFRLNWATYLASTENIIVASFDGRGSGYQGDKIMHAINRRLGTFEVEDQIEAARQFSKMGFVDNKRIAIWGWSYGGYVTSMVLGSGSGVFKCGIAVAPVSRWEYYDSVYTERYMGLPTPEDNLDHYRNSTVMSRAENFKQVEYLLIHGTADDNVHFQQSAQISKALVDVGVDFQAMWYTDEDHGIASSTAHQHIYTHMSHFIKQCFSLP

For CC#CCn1c(N2CCC[C@@H](N)C2)nc2c1c(=O)n(Cc1ncccc1C(=O)OC)c(=O)n2C [Compound I-4, 1-[(3-methyl formate-pyridine-2-yl)methyl]-3-methyl-7-(2-butyne-1-yl)-8-[(R)-3-amino-piperidine-1-yl]-xanthine], the pIC50 [1] was 8.32.
CC#CCn1c(N2CCC[C@@H](N)C2)nc2c1c(=O)n(Cc1cc(F)c(F)cc1C#N)c(=O)n2C [Compound I-2, 1-[(4,5-difluoro-benzonitrile-2-yl)methyl]-3-methyl-7-(2-butyne-1-yl)-8-[(R)-3-amino-piperidine-1-yl]-xanthine] showed a pIC50 [1] of 8.68.
CC#CCn1c(N2CCC[C@@H](N)C2)nc2c1c(=O)n(Cc1cccc(F)c1C#N)c(=O)n2C [Compound I-1, 1-[(6-fluorine-benzonitrile-2-yl)methyl]-3-methyl-7-(2-butyne-1-yl)-8-[(R)-3-amino-piperidine-1-yl]-xanthine] showed a pIC50 [1] of 9.68.
In the case of CC#CCn1c(N2CCC[C@@H](N)C2)nc2c1c(=O)n(Cc1nc(C)c3ccccc3n1)c(=O)n2C [Linagliptin, linagliptin, reference compound], the “bioavailability (F)” value [2] is listed as 18.4%, the “Blood glucose concentration 0 min” value ([3]; diabetic mice B6.BKS(D)-Leprdb/JNju, drug at -60 min (0.6 mg/ml, 5 ml/kg), 2 g/kg glucose at 0 min) is listed as 12.09 mmol/L and the “Blood glucose concentration 15 min” value ([3]; diabetic mice, 15 min after glucose) is listed as 29.98* mmol/L. The “Blood glucose concentration 30 min” value ([3]; diabetic mice, 30 min after glucose) was 20.15*** mmol/L, the “Blood glucose concentration 45 min” value ([3]; diabetic mice, 45 min after glucose) was 16.60*** mmol/L and the “Blood glucose concentration 60 min” value ([3]; diabetic mice, 60 min after glucose) was 15.83** mmol/L. The “Blood glucose concentration 120 min” value ([3]; diabetic mice, 120 min after glucose) was 10.05* mmol/L, the AUC0-120 min ([3]; diabetic mice, blood glucose AUC) was 1987** and the “Blood glucose concentration 0 min” value ([4]; obese mice B6.Cg-Lepob/JNju, drug at -60 min (0.6 mg/ml, 5 ml/kg), 2 g/kg glucose at 0 min) was 10.95 mmol/L. The “Blood glucose concentration 15 min” value ([4]; obese mice, 15 min after glucose) was 31.73 mmol/L, the “Blood glucose concentration 30 min” value ([4]; obese mice, 30 min after glucose) was 27.98 mmol/L and the “Blood glucose concentration 45 min” value ([4]; obese mice, 45 min after glucose) was 20.50 mmol/L. For the same compound, the “Blood glucose concentration 60 min” value ([4]; obese mice, 60 min after glucose) was 16.00* mmol/L, the “Blood glucose concentration 120 min” value ([4]; obese mice, 120 min after glucose) was 11.50 mmol/L and the AUC0-120 min ([4]; obese mice, blood glucose AUC) was 2230. For the same compound, the “bioavailability (F)” value [5] was 30%, the “Blood glucose concentration 0 min” value (normal mice (C57BL/6J); normal mice C57BL/6J, drug at -60 min (0.6 mg/ml, 5 ml/kg), 5 g/kg glucose at 0 min) was 8.64* mmol/L and the “Blood glucose concentration 15 min” value (normal mice (C57BL/6J); normal mice, 15 min after glucose) was 14.7*** mmol/L. The “Blood glucose concentration 30 min” value (normal mice (C57BL/6J); normal mice, 30 min after glucose) was 10.5*** mmol/L, the “Blood glucose concentration 45 min” value (normal mice (C57BL/6J); normal mice, 45 min after glucose) was 9.5*** mmol/L and the “Blood glucose concentration 60 min” value (normal mice (C57BL/6J); normal mice, 60 min after glucose) was 10.14*** mmol/L. The “Blood glucose concentration 120 min” value (normal mice (C57BL/6J); normal mice, 120 min after glucose) was 7.72 mmol/L and the AUC0-120 min (normal mice (C57BL/6J); normal mice, blood glucose AUC) was 1198***.
